# Laboratory results as given in PMC7243115, “Evaluation of the Anti-Tumor Activity of Small Molecules Targeting Eph/Ephrins in APC ^min/J Mice” (Pharmaceuticals, 2020).
# “And” between values parts separate entries of the source, which are not always exact repeats. Equal entries are not always repeated.
# Assays:
# APC ^min/J mice = format: in vivo; conditions: 30 mg/kg oral every other day, 8 weeks
# Experimental: UniPR129, UniPR139 and UniPR1331 were tested in an animal model of intestinal tumorigenesis, based on the usage of APC ^min/J mice, which spontaneously develop multiple and large adenomas over intestinal tract due to a gene mutation.
# (§1) 5 weeks old C57BL/6J-APC ^min/J male mice were purchased from Jackson Laboratory (Bar Harbor, ME USA). Mice were weighted and randomly subdivided in four groups: • Control group: Oral administration of Methocel 0.5% every other day; • Three treatment groups: oral administration of UniPR129, UniPR139 or UniPR1331 30 mg/kg in Methocel 0.5% every other day.
# (§2) The experiment was carried out for 8 weeks and over this period the weight was monitored once a week. At the end of the experiment, all mice were sacrificed by carbon dioxide inhalation and blood samples were collected via intracardiac […] and used for evaluation of hematological parameters.
# Hematological and blood chemistry parameters were undergone to one-way ANOVA to compare control group to treatment groups.
# [1] = test system: adenomas in APC ^min/J mice; assay: Intestinal tumorigenesis model: number and diameter of adenomas (histological analysis); format: in vivo
# Experimental: UniPR129, UniPR139 and UniPR1331 were tested in an animal model of intestinal tumorigenesis, based on the usage of APC ^min/J mice, which spontaneously develop multiple and large adenomas over intestinal tract due to a gene mutation. […] Five weeks old mice have been treated with the three compounds at 30 mg/kg dose for 8 weeks every other day following previous observations. The weight of the mice has been monitored from the beginning of the treatment until the end of the study to follow the course of the disease and to detect potentially toxic effects of compounds.
# as §1, §2
# The whole intestine of all the mice was resected, washed with sterile PBS and fixed with 4% formalin. After 24 h, the intestine was longitudinally divided in 6 portions (1-duodenum, 2-jejunum, 3-ileum, 4-caecum, 5-colon, 6-rectum) and each portion was embedded in paraffin and sectioned at 5 μm with microtome (Leica). Slides were dried at 37 °C for 24 h, then deparaffinized in xylene, rehydrated with decreasing concentration of alcohol and stained with hematoxylin and eosin.
# Histological slides were examined with Nikon Eclipse E800 microscope (Nikon Corporation, Japan) and photographs of sections were taken at 2x with Camera Nikon DIGITAL SIGHT attached to the microscope. The observation of longitudinal sections of the small intestine allowed to determine the distribution and number of adenomatous lesions; four longitudinal sections have been prepared for each segment of small intestine. The microscopic images of the ileum have been subsequently analyzed, using the ImageJ software, to determine the diameter and area of each adenoma.
# [2] = cited from earlier work
# [3] = of the total number of adenomas in the ileum section
structure (smiles),measurement,setting,value
C[C@H](CCC(=O)N[C@H](CC(=O)O)Cc1c[nH]c2ccccc12)[C@H]1CC[C@H]2[C@@H]3CC[C@@H]4C[C@H](O)CC[C@]4(C)[C@H]3CC[C@]12C [UniPR129],tolerability,APC ^min/J mice,well tolerated
same,ALT,"APC ^min/J mice; mean ± SD, n = 7",23.43 ± 3.78 UI
same,AST/GOT,"APC ^min/J mice; mean ± SD, n = 7",108.86 ± 47.11 UI
same,Basophils,"APC ^min/J mice; mean ± SD, n = 7",0.00 ± 0.00%
same,Creatinine,"APC ^min/J mice; mean ± SD, n = 7",0.22 ± 0.08 mg/dL
same,Eosinophils,"APC ^min/J mice; mean ± SD, n = 7",0.10 ± 0.10%
same,Glucose,"APC ^min/J mice; mean ± SD, n = 7",161.10 ± 21.18 mg/dL
same,Haematocrit,"APC ^min/J mice; mean ± SD, n = 7",26.69 ± 6.56%
same,Haemoglobin,"APC ^min/J mice; mean ± SD, n = 7",8.71 ± 2.15 g/dL
same,Lymphocytes,"APC ^min/J mice; mean ± SD, n = 7",93.29 ± 6.14%
same,Mean cellular Volume,"APC ^min/J mice; mean ± SD, n = 7",53.87 ± 2.62 fL
same,Mean platelet Volume,"APC ^min/J mice; mean ± SD, n = 7",4.91 ± 0.43 fL
same,Monocytes,"APC ^min/J mice; mean ± SD, n = 7",0.43 ± 0.31%
same,Neutrophils,"APC ^min/J mice; mean ± SD, n = 7",6.20 ± 6.33%
same,Platelets,"APC ^min/J mice; mean ± SD, n = 7",1191 ± 186.77 103/µL
same,Red cells,"APC ^min/J mice; mean ± SD, n = 7",5.01 ± 1.43 106/µL
same,Triglycerides,"APC ^min/J mice; mean ± SD, n = 7",145.10 ± 38.6 mg/dL
same,White cells,"APC ^min/J mice; mean ± SD, n = 7",4.83 ± 0.70 103/μL
same,efficacy in the model of intestinal tumorigenesis,"[1]; 30 mg/kg oral every other day, 8 weeks",the only compound to show positive results
same,"Ileum Adenomas, Mean (number)","[1]; 30 mg/kg oral every other day, 8 weeks, n = 7, CTR 13.14",7.57 ± 2.07 and 7.57
same,"Overall Intestine Adenomas, Mean (number)","[1]; 30 mg/kg oral every other day, 8 weeks, n = 7, CTR 19.71",14.00
same,reduction of the formation of adenomas in the ileum,"[1]; 30 mg/kg oral, 8 weeks, vs control",1.6 times
same,mean adenoma diameter in the ileum,"[1]; 30 mg/kg oral, ± 0.28 (SD), control 0.94 mm ± 0.39 (SD)",0.71 mm
same,number of medium adenomas (1 to 1.5 mm) in the ileum,"[1]; 30 mg/kg oral, ± SD, CTR 29 ± 2.5",11 ± 1.3
same,"Percentage of adenomas, class Large (1.5 to 2 mm)",[1]; [3],0%
same,"Percentage of adenomas, class Medium (1 to 1.5 mm)",[1]; [3],21%
same,"Percentage of adenomas, class Small (0.5 to 1 mm)",[1]; [3],51%
same,"Percentage of adenomas, class Very Large (> 2 mm)",[1]; [3],0%
same,"Percentage of adenomas, class Very Small (< 0.5 mm)",[1]; [3],28%
same,bioavailability after oral administration,[2],not be bioavailable after oral administration
same,first pass hepatic metabolism,[2],extensive first pass hepatic metabolism
